# In US20240285683A1, “Compositions And Methods For Enhancing Immunotherapy” (The Trustees of Princeton University, priority 2017, published 2024):
# System: Naïve CD8+ T cells
# Source text: Naïve CD8+ T cells were isolated from mouse spleen. Cells were activated at a cell density of 10^6 cells/mL using plate-bound αCD3/αCD28+100 U/mL TL2 in RPMI containing 10% FBS.
smiles,measurement,setting,value
O=CO [formate],cell size at day 1 post activation,"1 mM formate in media, from 9.5 μm without formate",10.2 μm
same,"extent of cells showing cell surface activation markers (CD25+, CD69+)","1 mM formate, from 78% without formate",88%
same,reduction of NADH concentration,"formate, p<0.005",1.8 fold
same,dead cells,"growing CD8+ T cells, from 10% without formate",5%
